According to publication PMC10708454, “Mentha spp. Essential Oils: A Potential Toxic Fumigant with Inhibition of Acetylcholinesterase Activity on Reticulitermes dabieshanensis” (Plants, 2023):

Target: T1, acetylcholinesterase (AChE)
T1 construct: gene ace-1; native enzyme in crude whole-worker homogenate (Triton X-100 supernatant), not purified; the docking model is of Coptotermes formosanus, not this enzyme
Experiment: Ellman assay, crude termite homogenate
Type: biochemical, Reticulitermes dabieshanensis
Settings: acetylthiocholine iodide (10 mM stock), DTNB, Tris-HCl pH 7.8, 30 min, inhibitor in alcohol

Row | SMILES | IC50 ^a (95% CI ^b) (0.5-6.0 μL/mL) | IC50 ^a (95% CI ^b) (1.0-20.0 μL/mL (value outside tested range))
1 | C=C(C)C1CC=C(C)C(=O)C1 (stereo not drawn) [carvone] | 1.922 (1.131–3.308) μL/mL | –
2 | CC(C)[C@@H]1CC[C@@H](C)C[C@H]1O [menthol] | – | 76.790 (36.58–166.367) μL/mL
3 | C=CC(C)(O)CCC=C(C)C (stereo not drawn) [linalool] | 0.136 (0.066–0.218) μL/mL | –
